Patent US12098145B2 (Libra Therapeutics, Inc., priority 2022, dated 2024)
Like-named read-outs stand apart in the source and are kept apart here.

How the values were obtained:
TRPML1 = target: T1, TRPML1 (Homo sapiens, UniProt Q9GZU1); assay: Cellular TRPML1 assay (FLIPR, GCaMP6f calcium read-out); format: cell-based
T1 construct: expressed in transfected cells; host or cells: HEK T-REx cells stably expressing GCaMP6f and TRPML1
Summary of the method: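 Read-out is GCaMP6f fluorescence over 300 s after compound addition in Ca2+-free Tyrode's buffer, final DMSO 0.5%, on FLIPR Tetra. Cells are HEK T-REx stably co-expressing the indicator and TRPML1, plated 24 h earlier in Optimem + 0.5% FBS and pre-incubated ~10 min at room temperature.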

TFEB = TFEB translocation assay (TFEB reporter in U2OS cells, imaging); format: cell-based; settings: Homo sapiens; U2OS cell line with TFEB reporter, 2 hours incubation, nucleus to cytoplasm ratio, normalized to Torin-1; read-out: TFEB Translocation pEC50 (converted)
Summary of the method: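 Activity expresses the mean nuclear-to-cytosolic reporter ratio scaled between DMSO (0%) and Torin-1 (100%) controls. Read-out came from high-content imaging of fixed, Hoechst-counterstained U2OS cells carrying mRFP-tagged TFEB after 2 h compound exposure at 37 °C in Opti-MEM with 0.015% Tween 80 and 0.5% DMSO.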

[1] = HEKT-REx/GCaMP6f/TRPML1 cells, FLIPR TETRA, kinetic response over 300 seconds, read-out: TRPML1 FLIPR pEC50 (converted)

T1 sequence (Q9GZU1 whole entry): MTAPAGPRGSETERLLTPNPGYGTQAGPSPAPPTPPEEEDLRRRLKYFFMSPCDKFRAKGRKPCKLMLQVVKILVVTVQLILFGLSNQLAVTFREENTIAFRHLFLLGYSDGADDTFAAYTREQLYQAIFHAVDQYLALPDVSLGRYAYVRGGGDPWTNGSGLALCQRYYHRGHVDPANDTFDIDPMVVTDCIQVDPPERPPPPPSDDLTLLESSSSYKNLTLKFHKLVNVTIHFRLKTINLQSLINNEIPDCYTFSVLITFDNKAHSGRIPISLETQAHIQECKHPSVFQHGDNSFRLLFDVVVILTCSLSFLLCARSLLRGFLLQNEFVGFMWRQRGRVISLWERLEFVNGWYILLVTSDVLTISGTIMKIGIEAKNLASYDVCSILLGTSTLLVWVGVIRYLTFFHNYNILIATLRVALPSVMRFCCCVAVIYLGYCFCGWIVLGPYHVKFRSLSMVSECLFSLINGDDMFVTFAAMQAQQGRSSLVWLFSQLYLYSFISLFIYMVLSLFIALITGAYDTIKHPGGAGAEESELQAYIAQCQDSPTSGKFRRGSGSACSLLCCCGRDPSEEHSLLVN

CCc1oc(N2CC(CC)(OC)C2)nc1C(=O)Nc1cc(F)c(O[C@@H]2C[C@@H]3C[C@@H]3C2)c(Cl)c1 [Example 219, N-(4-(cis-bicyclo[3.1.0]hexan-3-yloxy)-3-chloro-5-fluorophenyl)-5-ethyl-2-(3-ethyl-3-methoxyazetidin-1-yl)oxazole-4-carboxamide]
EC50 (TRPML1; [1]): 0.01 to 1 µM | EC50 (TFEB): 0.01 to 1 µM

CCc1oc(N2CC(CC)(CC)C2)nc1C(=O)Nc1cc(F)c(O[C@@H]2C[C@@H]3C[C@@H]3C2)c(Cl)c1 [Example 221, N-(4-(cis-bicyclo[3.1.0]hexan-3-yloxy)-3-chloro-5-fluorophenyl)-2-(3,3-diethylazetidin-1-yl)-5-ethyloxazole-4-carboxamide]
EC50 (TRPML1; [1]): 0.01 to 1 µM | EC50 (TFEB): 0.01 to 1 µM

CCc1oc(N2CC(C)(OC)C2)nc1C(=O)Nc1cc(F)c(O[C@@H]2C[C@@H]3C[C@@H]3C2)c(Cl)c1 [Example 223, N-(4-(cis-bicyclo[3.1.0]hexan-3-yloxy)-3-chloro-5-fluorophenyl)-5-ethyl-2-(3-methoxy-3-methylazetidin-1-yl)oxazole-4-carboxamide]
EC50 (TRPML1; [1]): 0.01 to 1 µM | EC50 (TFEB): 0.01 to 1 µM

CCc1oc(N2CC(C)(CO)C2)nc1C(=O)Nc1cc(C)c(OC2CC3CC(C3)C2)c(F)c1 (stereo not shown) [Example 224, N-(4-(bicyclo[3.1.1]heptan-3-yloxy)-3-fluoro-5-methylphenyl)-5-ethyl-2-(3-(hydroxymethyl)-3-methylazetidin-1-yl)oxazole-4-carboxamide]
EC50 (TRPML1; [1]): 0.01 to 1 µM | EC50 (TFEB): 0.01 to 1 µM

CCc1oc(N2CCCC2)nc1C(=O)Nc1cc(C)c(OC2CC3CC(C3)C2)c(F)c1 (stereo not shown) [Example 225, N-(4-(bicyclo[3.1.1]heptan-3-yloxy)-3-fluoro-5-methylphenyl)-5-ethyl-2-(pyrrolidin-1-yl)oxazole-4-carboxamide]
EC50 (TRPML1; [1]): 0.01 to 1 µM | EC50 (TFEB): 0.01 to 1 µM

CCc1oc(N2CC(CC)(OC)C2)nc1C(=O)Nc1cc(C)c(O[C@@H]2C[C@@H]3C[C@@H]3C2)c(F)c1 [Example 227, N-(4-(cis-bicyclo[3.1.0]hexan-3-yloxy)-3-fluoro-5-methylphenyl)-5-ethyl-2-(3-ethyl-3-methoxyazetidin-1-yl)oxazole-4-carboxamide]
EC50 (TRPML1; [1]): 0.01 to 1 µM | EC50 (TFEB): 0.01 to 1 µM

CCc1oc(N2CC(CC)(OC)C2)nc1C(=O)Nc1ccc(OC2CC3CC(C3)C2)c(F)c1 (stereo not shown) [Example 228, N-(4-(bicyclo[3.1.1]heptan-3-yloxy)-3-fluorophenyl)-5-ethyl-2-(3-ethyl-3-methoxyazetidin-1-yl)oxazole-4-carboxamide]
EC50 (TRPML1; [1]): 0.01 to 1 µM | EC50 (TFEB): 0.01 to 1 µM

CCc1oc(N2CCCC2)nc1C(=O)Nc1cc(F)c(OC2CC3CC(C3)C2)c(F)c1 (stereo not shown) [Example 229, N-(4-(bicyclo[3.1.1]heptan-3-yloxy)-3,5-difluorophenyl)-5-ethyl-2-(pyrrolidin-1-yl)oxazole-4-carboxamide]
EC50 (TRPML1; [1]): 0.01 to 1 µM | EC50 (TFEB): 0.01 to 1 µM

CCc1oc(N2CC(CC)(OC)C2)nc1C(=O)Nc1cc(F)c(OC2CC3CC(C3)C2)c(F)c1 (stereo not shown) [Example 230, N-(4-(bicyclo[3.1.1]heptan-3-yloxy)-3,5-difluorophenyl)-5-ethyl-2-(3-ethyl-3-methoxyazetidin-1-yl)oxazole-4-carboxamide]
EC50 (TRPML1; [1]): 0.01 to 1 µM | EC50 (TFEB): 0.01 to 1 µM

CCc1oc(N2CCC3(CC3)C2)nc1C(=O)Nc1cc(F)c(O[C@@H]2C[C@@H]3C[C@@H]3C2)c(F)c1 [Example 235, N-(4-(cis-bicyclo[3.1.0]hexan-3-yloxy)-3,5-difluorophenyl)-5-ethyl-2-(5-azaspiro[2.4]heptan-5-yl)oxazole-4-carboxamide]
EC50 (TRPML1; [1]): 0.01 to 1 µM | EC50 (TFEB): 0.01 to 1 µM

CCc1oc(N2CC(CC)(OC)C2)nc1C(=O)Nc1cc(F)c(O[C@@H]2C[C@@H]3C[C@@H]3C2)c(F)c1 [Example 238, N-(4-(cis-bicyclo[3.1.0]hexan-3-yloxy)-3,5-difluorophenyl)-5-ethyl-2-(3-ethyl-3-methoxyazetidin-1-yl)oxazole-4-carboxamide]
EC50 (TRPML1; [1]): 0.01 to 1 µM | EC50 (TFEB): 0.01 to 1 µM

CCc1oc(N2CC(C)(OC)C2)nc1C(=O)Nc1cc(F)c(O[C@@H]2C[C@@H]3C[C@@H]3C2)c(F)c1 [Example 239, N-(4-(cis-bicyclo[3.1.0]hexan-3-yloxy)-3,5-difluorophenyl)-5-ethyl-2-(3-methoxy-3-methylazetidin-1-yl)oxazole-4-carboxamide]
EC50 (TRPML1; [1]): 0.01 to 1 µM | EC50 (TFEB): 0.01 to 1 µM

CCc1oc(N2CC3CCCC3C2)nc1C(=O)Nc1cc(F)c(OC2CC3C[C@H]3C2)c(F)c1 (stereo partly drawn) [Example 240, N-(4-(cis-bicyclo[3.1.0]hexan-3-yloxy)-3,5-difluorophenyl)-5-ethyl-2-(hexahydrocyclopenta[c]pyrrol-2(1H)-yl)oxazole-4-carboxamide]
EC50 (TRPML1; [1]): 0.01 to 1 µM | EC50 (TFEB): 0.01 to 1 µM

CCc1oc(N2CC3CCC3C2)nc1C(=O)Nc1cc(F)c(OC2CC3C[C@H]3C2)c(F)c1 (stereo partly drawn) [Example 241, N-(4-(cis-bicyclo[3.1.0]hexan-3-yloxy)-3,5-difluorophenyl)-2-(3-azabicyclo[3.2.0]heptan-3-yl)-5-ethyloxazole-4-carboxamide]
EC50 (TRPML1; [1]): 0.01 to 1 µM | EC50 (TFEB): 0.01 to 1 µM

CCc1oc(N2CCCC2)nc1C(=O)Nc1cc(F)c(O[C@@H]2C[C@@H]3C[C@@H]3C2)c(F)c1 [Example 244, N-(4-(cis-bicyclo[3.1.0]hexan-3-yloxy)-3,5-difluorophenyl)-5-ethyl-2-(pyrrolidin-1-yl)oxazole-4-carboxamide]
EC50 (TRPML1; [1]): 0.01 to 1 µM | EC50 (TFEB): 0.01 to 1 µM

CCc1oc(N2CC(CC)(CC)C2)nc1C(=O)Nc1ccc(O[C@@H]2C[C@@H]3C[C@@H]3C2)c(F)c1 [Example 245, N-(4-(cis-bicyclo[3.1.0]hexan-3-yloxy)-3-fluorophenyl)-2-(3,3-diethylazetidin-1-yl)-5-ethyloxazole-4-carboxamide]
EC50 (TRPML1; [1]): 0.01 to 1 µM | EC50 (TFEB): 0.01 to 1 µM

CCc1oc(N2CC3CCC3C2)nc1C(=O)Nc1ccc(OC2CC3C[C@H]3C2)c(F)c1 (stereo partly drawn) [Example 247, N-(4-(cis-bicyclo[3.1.0]hexan-3-yloxy)-3-fluorophenyl)-2-(3-azabicyclo[3.2.0]heptan-3-yl)-5-ethyloxazole-4-carboxamide]
EC50 (TRPML1; [1]): 0.01 to 1 µM | EC50 (TFEB): 0.01 to 1 µM

CCc1oc(N2CC(C)(OC)C2)nc1C(=O)Nc1ccc(O[C@@H]2C[C@@H]3C[C@@H]3C2)c(Cl)c1 [Example 249, N-(4-(cis-bicyclo[3.1.0]hexan-3-yloxy)-3-chlorophenyl)-5-ethyl-2-(3-methoxy-3-methylazetidin-1-yl)oxazole-4-carboxamide]
EC50 (TRPML1; [1]): 0.01 to 1 µM | EC50 (TFEB): 0.01 to 1 µM

CCc1oc(N2CC(CC)(OC)C2)nc1C(=O)Nc1cc(F)c(N2CC3CC(C3)C2)c(F)c1 [Example 254, N-(4-(3-azabicyclo[3.1.1]heptan-3-yl)-3,5-difluorophenyl)-5-ethyl-2-(3-ethyl-3-methoxyazetidin-1-yl)oxazole-4-carboxamide]
EC50 (TRPML1): 0.01 to 1 µM | EC50 (TFEB): 0.01 to 1 µM

CCc1oc(N2CCCC2)nc1C(=O)Nc1cc(F)c(N2CC3CC(C3)C2)c(F)c1 [Example 255, N-(4-(3-azabicyclo[3.1.1]heptan-3-yl)-3,5-difluorophenyl)-5-ethyl-2-(pyrrolidin-1-yl)oxazole-4-carboxamide]
EC50 (TRPML1): 0.01 to 1 µM | EC50 (TFEB): 0.01 to 1 µM

CCc1oc(N2CC(C)(C)C2)nc1C(=O)Nc1cc(F)c(N2CC3CC(C3)C2)c(F)c1 [Example 256, N-(4-(3-azabicyclo[3.1.1]heptan-3-yl)-3,5-difluorophenyl)-2-(3,3-dimethylazetidin-1-yl)-5-ethyloxazole-4-carboxamide]
EC50 (TRPML1): 0.01 to 1 µM | EC50 (TFEB): 0.01 to 1 µM

CCc1oc(N2CC3(C2)CC(F)(F)C3)nc1C(=O)Nc1cc(F)c(N2CC3CC(C3)C2)c(F)c1 [Example 259, N-(4-(3-azabicyclo[3.1.1]heptan-3-yl)-3,5-difluorophenyl)-2-(6,6-difluoro-2-azaspiro[3.3]heptan-2-yl)-5-ethyloxazole-4-carboxamide]
EC50 (TRPML1; [1]): 1 to 10 µM | EC50 (TFEB): 0.01 to 1 µM

CCC1(CC)CN(c2nc(C(=O)Nc3cc(C)c(OC4CC5CC(C5)C4)c(O)c3)c(CC(F)(F)F)o2)C1 (stereo not shown) [Example 260, N-(4-(bicyclo[3.1.1]heptan-3-yloxy)-3-hydroxy-5-methylphenyl)-2-(3,3-diethylazetidin-1-yl)-5-(2,2,2-trifluoroethyl)oxazole-4-carboxamide]
EC50 (TRPML1; [1]): 0.01 to 1 µM | EC50 (TFEB): 0.01 to 1 µM

CCC1(CC)CN(c2nc(C(=O)Nc3cc(O)c(OC4CC5CC(C5)C4)c(Cl)c3)c(CC(F)(F)F)o2)C1 (stereo not shown) [Example 261, N-(4-(bicyclo[3.1.1]heptan-3-yloxy)-3-chloro-5-hydroxyphenyl)-2-(3,3-diethylazetidin-1-yl)-5-(2,2,2-trifluoroethyl)oxazole-4-carboxamide]
EC50 (TRPML1; [1]): 0.01 to 1 µM | EC50 (TFEB): 0.01 to 1 µM

CCC1(CC)CN(c2nc(C(=O)Nc3cc(C)c(O[C@@H]4C[C@@H]5C[C@@H]5C4)c(O)c3)c(CC(F)(F)F)o2)C1 [Example 262, N-(4-(cis-bicyclo[3.1.0]hexan-3-yloxy)-3-hydroxy-5-methylphenyl)-2-(3,3-diethylazetidin-1-yl)-5-(2,2,2-trifluoroethyl)oxazole-4-carboxamide]
EC50 (TRPML1; [1]): 0.01 to 1 µM | EC50 (TFEB): 0.01 to 1 µM

CCC1(CC)CN(c2nc(C(=O)Nc3cc(O)c(OC4CC5CC(C5)C4)c(F)c3)c(CC(F)(F)F)o2)C1 (stereo not shown) [Example 264, N-(4-(bicyclo[3.1.1]heptan-3-yloxy)-3-fluoro-5-hydroxyphenyl)-2-(3,3-diethylazetidin-1-yl)-5-(2,2,2-trifluoroethyl)oxazole-4-carboxamide]
EC50 (TRPML1; [1]): 0.01 to 1 µM | EC50 (TFEB): 0.01 to 1 µM
